# Assay results as given in patent US7468384B2, “Microbicidal composition” (Rohm and Haas Company, priority 2004, dated 2008).
# Read-outs that look alike come from different tables or passages of the source.
# Columns and labels:
# Type in all cases: cell-based
# [1] = system: Aspergillus niger (A. niger—ATCC 16404); experiment: Synergy test, microtiter plate high resolution MIC assay, mold; design: key to SI (calculated synergy index) / SI (synergy index): SI = Qa/QA + Qb/QB (mixture vs. alone end-point concentrations); details: for MIC: Aspergillus niger
# Description: (§1) One measure of synergism is the industrially accepted method described by Kull, F. C.; Eisman, P. C.; Sylwestrowicz, H. D. and Mayer, R. L., in Applied Microbiology 9:538-541 (1961), using the ratio determined by the formula: Qa/QA+Qb/QB=Synergy Index (“SI”) wherein: • QA=concentration of compound A (first component) in ppm, acting alone, which produced an end point (MIC of Compound A). • Qa=concentration of compound A in ppm, in the mixture, which produced an end point. • QB=concentration of compound B (second component) in ppm, acting alone, which produced an end point (MIC of Compound B). • Qb=concentration of compound B in ppm, in the mixture, which produced an end point.
# (§2) When the sum of Qa/QA and Qb/QB is greater than one, antagonism is indicated. […] The lower the SI, the greater the synergy shown by that particular mixture. The minimum inhibitory concentration (MIC) of a microbicide is the lowest concentration tested under a specific set of conditions that prevents the growth of added microorganisms.
# (§3) Synergy tests were conducted using standard microtiter plate assays with media designed for optimal growth of the test microorganism. Soybean Casein Digest Broth (Tryptic Soy Broth, TSB medium) or minimal salt medium supplemented with 0.2% glucose and 0.1% yeast extract (M9GY medium) was used for testing bacteria; Potato Dextrose Broth (PDB medium) was used for testing yeast and mold. In this method, a wide range of combinations of microbicides was tested by conducting high resolution MIC assays in the presence of various concentrations of MI. High resolution MICs were determined by adding varying amounts of microbicide to one column of a microtitre plate and doing subsequent ten-fold dilutions using an automated liquid handling system to obtain a series of endpoints ranging from 2 ppm to 10,000 ppm active ingredient.
# (§4) For MI combinations, the synergy of the combinations of the present invention was determined against two bacteria, Escherichia coli (E. coli—ATCC #8739) or Pseudomonas aeruginosa (P. aeruginosa—ATCC #15442), a yeast, Candida albicans (C. albicans—ATCC 10231), and a mold, Aspergillus niger (A. niger—ATCC 16404). The bacteria were used at a concentration of about 5×10^6 bacteria per mL and the yeast and mold at 5×10^5 fungi per mL. These microorganisms are representative of natural contaminants in many consumer and industrial applications. […] (bacteria).
# (§5) For BIT combinations, the synergy of the combinations of the present invention was determined against a bacterium, Pseudomonas aeruginosa (P. aeruginosa—ATCC #15442), a yeast, Candida albicans (C. albicans—ATCC 10231), and a mold, Aspergillus niger (A. niger—ATCC 16404). The bacteria were used at a concentration of about 5×10^6 bacteria per mL and the yeast and mold at 5×10^5 fungi per mL. These microorganisms are representative of natural contaminants in many consumer and industrial applications. […] (yeast and mold) or 30° C. (bacteria).
# [2] = system: Candida albicans (C. albicans—ATCC 10231); experiment: Synergy test, microtiter plate high resolution MIC assay, yeast; details: C. albicans 10231, PDB; for Qb (second component at end point, MIC): alone where Qa = 0; for Qb: alone or mixed with BIT
# Description: as §1, §2, §3, §4, §5
# [3] = system: Pseudomonas aeruginosa (P. aeruginosa—ATCC #15442); experiment: Synergy test, microtiter plate high resolution MIC assay, bacterium; design: key to SI (calculated synergy index) / SI (synergy index): SI = Qa/QA + Qb/QB (mixture vs. alone end-point concentrations); details: P. aeruginosa 15442, M9GY; for Qb (second component at end point, MIC) / MIC: alone where Qa = 0; for Qb: alone or mixed with BIT; for MIC: Pseudomonas aeruginosa
# Description: as §1, §2, §3, §4, §5
# [4] = system: Escherichia coli (E. coli—ATCC #8739); experiment: as above; details: E. coli 8739, M9GY; for Qb (second component at end point, MIC): alone where Qa = 0; for Qb: alone or mixed with BIT
# Description: as §1, §2
# as §3, with “In this method, a wide range of combinations of microbicides was tested by conducting high resolution MIC assays in the presence of various concentrations of MI.” left out
# as §4
# [5] = Table 25, sodium dehydroacetic acid with BIT, 24 hours
# [6] = benzyl alcohol concentration giving end point (MIC), 48 hours
# [7] = synergy index BIT + benzyl alcohol, 48 hours
# [8] = diazolidinyl urea concentration giving end point (MIC), 48 hours
# [9] = synergy index BIT + diazolidinyl urea, 48 hours
# [10] = Table 26, sodium benzoate with BIT, 24 hours
compound,measurement,setting,value
CC(=O)c1c([O-])cc(C)oc1=O.[Na+] [Sodium dehydroacetic acid],MIC of component acting alone (QA / QB),"[1]; A. niger 16404, PDB, 4 days",80 ppm
same,SI (synergy index),"[1]; Table 25, A. niger 16404, PDB, 1 week",1.00
same,"Qb (second component at end point, MIC)","[1]; Table 25, sodium dehydroacetic acid with BIT, A. niger 16404, PDB, 1 week, alone where Qa = 0",200 ppm
same,MIC of component acting alone (QA / QB),[2]; 24 hours,40 ppm
same,SI (synergy index),"[2]; Table 25, 24 hours",1.00
same,"Qb (second component at end point, MIC)",[2]; [5],30 ppm
same,MIC of component acting alone (QA / QB),[3]; 48 hours,10000 ppm
same,SI (synergy index),"[3]; Table 25, 24 hours",1.00
same,"Qb (second component at end point, MIC)",[3]; [5],10000 ppm
same,MIC of component acting alone (QA / QB),[4]; 24 hours,10000 ppm
same,SI (synergy index),"[4]; Table 25, 24 hours",1.00
same,"Qb (second component at end point, MIC)",[4]; [5],10000 ppm
OCc1ccccc1 [Benzyl alcohol],MIC,"[1]; ATCC16404, 168 h, benzyl alcohol concentration giving end point (MIC), alone or mixed with BIT, A. niger 16404, PDB, 1 week, read-out: Qb",5000 µg/mL
same,SI,"[1]; synergy index BIT + benzyl alcohol, A. niger 16404, PDB, 1 week",1.00
same,Qb,[2]; [6],4000 ppm
same,SI,[2]; [7],1.00
same,Qb,[3]; [6],200 ppm
same,SI,[3]; [7],1.00
same,Qb,"[4]; benzyl alcohol concentration giving end point (MIC), 24 hours",4000 ppm
same,SI,"[4]; synergy index BIT + benzyl alcohol, 24 hours",1.00
O=C(NCO)N(CO)C1(CO)C(=O)NC(=O)N1CO (stereo not drawn) [Diazolidinyl urea],MIC,"[1]; ATCC16404, 72 h, diazolidinyl urea concentration giving end point (MIC), alone or mixed with BIT, A. niger 16404, PDB, 3 days, read-out: Qb",1000 µg/mL
same,SI,"[1]; synergy index BIT + diazolidinyl urea, A. niger 16404, PDB, 3 days",1.00
same,Qb,"[2]; diazolidinyl urea concentration giving end point (MIC), 24 hours",2000 ppm
same,SI,"[2]; synergy index BIT + diazolidinyl urea, 24 hours",1.00
same,Qb,[3]; [8],80 ppm
same,SI,[3]; [9],1.00
same,Qb,[4]; [8],100 ppm
same,SI,[4]; [9],1.00
O=C([O-])c1ccccc1.[Na+] [sodium benzoate],SI (synergy index),"[1]; Table 26, A. niger 16404, PDB, 1 week",1.00
same,"Qb (second component at end point, MIC)","[1]; Table 26, sodium benzoate with BIT, A. niger 16404, PDB, 1 week, alone where Qa = 0",6000 ppm
same,SI (synergy index),"[2]; Table 26, 48 hours",1.00
same,"Qb (second component at end point, MIC)","[2]; Table 26, sodium benzoate with BIT, 48 hours",2000 ppm
same,SI (synergy index),"[3]; Table 26, 24 hours",1.00
same,"Qb (second component at end point, MIC)",[3]; [10],10000 ppm
same,SI (synergy index),"[4]; Table 26, 24 hours",1.00
same,"Qb (second component at end point, MIC)",[4]; [10],10000 ppm
"O=C(O)CN(CCN(CC(=O)O)CC(=O)O)CC(=O)O [EDTA, ethylenediamine tetraacetic acid]",MIC,"[1]; ATCC16404, 96 h, read-out: Qb",2000 µg/mL
same,SI,"[1]; synergy index BIT + EDTA, A. niger 16404, PDB, 4 days",1.00
zinc pyrithione,SI (synergy index),"[1]; Table 28, A. niger 16404, PDB, 1 week",1.00
same,"Qb (second component at end point, MIC)","[1]; Table 28, zinc pyrithione with BIT, A. niger 16404, PDB, 1 week, alone where Qa = 0",8 ppm
same,SI (synergy index),"[3]; Table 28, 48 hours",1.00
same,"Qb (second component at end point, MIC)","[3]; Table 28, zinc pyrithione with BIT, 48 hours",80 ppm
CCCOC(=O)c1ccc(O)cc1 [propylparaben],MIC,"[1]; ATCC16404, 72 h, Table 23, propylparaben with BIT, A. niger 16404, PDB, 3 days, alone where Qa = 0, read-out: Qb (second component at end point, MIC)",1000 µg/mL
same,SI (synergy index),"[1]; Table 23, A. niger 16404, PDB, 3 days",1.00
same,MIC,"[3]; ATCC15442, Table 23, propylparaben with BIT, 24 hours, read-out: Qb (second component at end point, MIC)",10000 µg/mL
same,SI (synergy index),"[3]; Table 23, 24 hours",1.00
O=C([O-])CNCO.[Na+] [Sodium hydroxymethylglycinate],MIC,"[1]; ATCC16404, 72 h, read-out: Qb (second component at end point, MIC)",600 µg/mL
same,SI (synergy index),"[1]; Table 27, A. niger 16404, PDB, 3 days",1.00
same,MIC,"[3]; ATCC15442, 24 h, read-out: Qb (second component at end point, MIC), Table 27, Sodium hydroxymethylglycinate with BIT, 24 hours",2000 µg/mL
same,SI (synergy index),"[3]; Table 27, 24 hours",1.00
CCOC(=O)c1ccc(O)cc1 [ethylparaben],MIC,"[1]; ATCC16404, 72 h, ethylparaben concentration giving end point (MIC), alone or mixed with BIT, A. niger 16404, PDB, 3 days, read-out: Qb",2000 µg/mL
same,SI,"[1]; synergy index BIT + ethylparaben, A. niger 16404, PDB, 3 days",1.00
same,Qb,"[3]; ethylparaben concentration giving end point (MIC), 48 hours",3000 ppm
same,SI,"[3]; synergy index BIT + ethylparaben, 48 hours",1.00
COC(=O)c1ccc(O)cc1 [methylparaben],MIC,"[1]; ATCC16404, 96 h, read-out: Qb",800 µg/mL
same,SI,"[1]; synergy index BIT + methylparaben, A. niger 16404, PDB, 4 days",1.00
same,Qb,"[3]; methylparaben concentration giving end point (MIC), 48 hours",3000 ppm
same,SI,"[3]; synergy index BIT + methylparaben, 48 hours",1.00
"CNC(=O)c1ccccc1SSc1ccccc1C(=O)NC [2,2′-dithiobis(N-methylbenzamide)]",MIC,"[1]; ATCC16404, 72 h, 2,2′-dithiobis(N-methylbenzamide) concentration giving end point (MIC), alone or mixed with BIT, A. niger 16404, PDB, 3 days, read-out: Qb",1000 µg/mL
same,SI,"[1]; synergy index BIT + 2,2′-dithiobis(N-methylbenzamide), A. niger 16404, PDB, 3 days",1.00
same,Qb,"[3]; 2,2′-dithiobis(N-methylbenzamide) concentration giving end point (MIC), 48 hours",200 ppm
same,SI,"[3]; synergy index BIT + 2,2′-dithiobis(N-methylbenzamide), 48 hours",1.00
Benzalkonium chloride,SI (calculated synergy index),"[1]; Table 8, A. niger 16404, PDB, 1 week",1.00
same,"Qb: end-point activity (MIC) of second component in the mixture (alone, QB, where Qa = 0)","[1]; Table 8, A. niger 16404, PDB, 1 week, B = Benzalkonium chloride",200 ppm
same,SI (calculated synergy index),"[3]; Table 8, 48 hours",1.00
same,"Qb: end-point activity (MIC) of second component in the mixture (alone, QB, where Qa = 0)","[3]; Table 8, 48 hours, B = Benzalkonium chloride",40 ppm
